Experimental data from US5718923A, “Melt granulated sucralfate preparations and a process for their production” (Chugai Seiyaku Kabushiki Kaisha, priority 1994, dated 1998).

Assays:
Assay type in all cases: physicochemical
[1] = particle size of the comminuted powder (hammer mill); conditions: comminuted with a hammer mill at about 3,000-3,600 rpm
Procedure: A dry powder sucralfate (as specified in Pharmacopoeia of Japan, JP) was comminuted with a hammer mill at about 3,000-3,600 rpm.

[2] = specific surface area measurement, nitrogen gas as adsorbate; conditions: Table 2
Procedure: Each of the samples thus prepared was measured for the dispersed particle size by means of a laser diffraction particle size analyzer; in addition, a specific surface area measurement was conducted before and after the granulation by means of a specific surface area measuring instrument (Shimadzu Corp.) using nitrogen gas as adsorbate.

[3] = dispersed particle size (size of particles as dispersed in water), laser diffraction particle size analyzer
Procedure: Each of the samples thus prepared was measured for the dispersed particle size (i.e., the size of particles as dispersed in water) by means of a laser diffraction particle size analyzer (Nikkiso Co., Ltd.); in addition, the samples were analyzed for average size (at 50% cumulative frequency) and the proportion of particles not larger than 50 μm. […]

[4] = Table 2, sucralfate:polyethylene glycol mixing proportions
[5] = Table 2, sucralfate:polyethylene glycol mixing proportions, melt granulated at 300 rpm to 65° C.

Row | Specific surface area [2] [m^2 /g] | Dispersed particle size, Average ([3]; Table 1, average size at 50% cumulative frequency, dispersed in water) [μm] | Dispersed particle size, Percent 50 μm and less ([3]; Table 1, dispersed in water) [%] | Dispersed particle size, Percent 50 μm and less [3, 4] [%] | Dispersed particle size, Average [3, 5] [μm] | Substance | particle size of comminuted powder, in words [1]
1 | 5.1 | 4.4 | 100.0 | 100.0 | 4.4 | sucralfate [Comminuted sucralfate powder] | entirely composed of particles not larger than 50 μm
2 | 1.6 |  |  | 86.2 | 18.6 | sucralfate [Sucralfate of JP] | 
